The Kinase Knowledgebase extract (Sharma et al. 2016)

These compounds were tested on MAPK14 (Balb/c mice) (assay: Animal Model). Conditions: dose or concentration not given here.

SMILES	inhibition [%]
Cc1nc(COc2ccc(C(=O)Nc3cc(NC(=O)c4cc(F)cc(N5CCOCC5)c4)ccc3C)cc2)cs1	0

These compounds were tested against MAPK14 (human) (UniProt Q16539) (assay: Inhibition of LPS Induced TNF-alpha Release in Human PBMC). Conditions: not given.
Sequence of MAPK14 (human) (Q16539 whole entry, looked up): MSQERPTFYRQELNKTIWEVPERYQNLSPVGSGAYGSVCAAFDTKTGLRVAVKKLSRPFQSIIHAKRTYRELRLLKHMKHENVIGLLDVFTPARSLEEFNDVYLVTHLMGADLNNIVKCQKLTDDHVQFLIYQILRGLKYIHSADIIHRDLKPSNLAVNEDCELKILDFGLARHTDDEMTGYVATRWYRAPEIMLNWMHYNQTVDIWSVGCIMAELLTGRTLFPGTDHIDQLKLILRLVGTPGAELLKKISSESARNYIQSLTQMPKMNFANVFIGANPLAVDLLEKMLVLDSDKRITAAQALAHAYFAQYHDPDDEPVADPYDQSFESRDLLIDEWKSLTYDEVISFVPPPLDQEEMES

SMILES	IC50 [nM]
Cc1ccc(NC(=O)c2cccc(N(C)C)c2)cc1NC(=O)c1ccc(O)cc1	> 50000
COc1ccc(C(=O)Nc2cc(NC(=O)c3cccc(N(C)C)c3)ccc2C)cc1	> 50000
COc1ccc(C(=O)Nc2cc(NC(=O)c3cccc(N(C)C)c3)ccc2C)c(OC)c1	> 50000

The compounds below were run against MAPK14 (UniProt Q16539) (assay: Inhibition of MAPK14 Kinase Activity). Conditions: not given.
Sequence of MAPK14 (Q16539 whole entry, looked up): as above

SMILES	IC50 [nM]
Cc1ccc(NC(=O)c2cccc(N3CCOCC3)c2)cc1NC(=O)c1ccc(OCc2cccnc2)cc1	95
Cc1nc(COc2ccc(C(=O)Nc3cc(NC(=O)c4cc(F)cc(N5CCOCC5)c4)ccc3C)cc2)cs1	97
Cc1ccc(NC(=O)c2cc(F)cc(N3CCOCC3)c2)cc1NC(=O)c1ccc(OCc2ccccn2)cc1	64
Cc1ccc(NC(=O)c2cc(F)cc(N3CCOCC3)c2)cc1NC(=O)c1ccc(OCc2ccncc2)cc1	17
Cc1nc(COc2ccc(C(=O)Nc3cc(NC(=O)c4cccc(N5CCOCC5)c4)ccc3C)cc2)cs1	28
Cc1ccc(NC(=O)c2cccc(N3CCOCC3)c2)cc1NC(=O)c1ccc(OCc2ccncc2)cc1	22
Cc1ccc(NC(=O)c2cccc(N3CCOCC3)c2)cc1NC(=O)c1ccc(OCc2ccccc2)cc1	37
Cc1ccc(NC(=O)c2cc(F)cc(N3CCOCC3)c2)cc1NC(=O)c1ccc(OCc2cscn2)cc1	16
